Data published in paper PMC12141164, “Phase-1 study of vamotinib (PF-114), a 3rd generation BCR::ABL1 tyrosine kinase-inhibitor, in chronic myeloid leukaemia” (Annals of Hematology, 2025).
Where two headings read alike, the source gives them in different places.

Assays:
EPHA6 = settings: kinase inhibition profiles; cited from earlier work
TAK1 = settings: kinase inhibition profiles; cited from earlier work
animals = settings: cited from earlier work
TIE2 = settings: kinase inhibition profiles; cited from earlier work
[1] = tested on: BaF3 cells expressing BCR::ABL1^T315I; parameters: method as in PMID 25394714; settings: read-out: IC50 of cytotoxicity; cited from earlier work
[2] = Pharmacokinetics in plasma after single- and multiple-dose administration; format: in vivo, human
Method: Blood samples were obtained to evaluate pharmacokinetics and pharmacodynamics (Tables S1, S1.1, S1.2). Data on phosphorylated CrkL protein (pCrkL) concentration were evaluated in samples from 4 subjects.
Pharmacokinetic measurements were done on days 1 and 29–30 of treatment. […] Steady-state was reached after 8 days of dosing, Fig. 1.
PF-114 was determined in human plasma samples using validated analytical method. […] The analytical method used 200 µL of plasma sample for each analysis. Analyte was isolated from plasma by a solid-phase extraction procedure performed on Oasis MCX extraction columns.
According to the Protocol, population for the pharmacokinetic analysis consists of all patients, who took at least one dose of PF-114, with respect to which sufficient amount of data on concentration of the study drug in the blood. The analysis of data on pharmacokinetic properties of the drug is carried out in this population of patients. All PK analyses will be presented on two subsets described in more detail below:
The PK concentration set (PK-C): This set includes all treated subjects who have at least 1 measured concentration.
The PK parameter analysis set (PK-P): This set consists of subjects from PK-C, who have no major protocol violation relevant to the evaluation of Pharmacokinetics, and who have at least 1 estimated PK parameter. Listings include all available raw data without any exclusions.

EPHA7 = settings: kinase inhibition profiles; cited from earlier work
rats = tested on: rats; parameters: method as in PMID 25394714; settings: pre-clinical toxicology; cited from earlier work
dogs = tested on: dogs; parameters: method as in PMID 25394714; settings: pre-clinical toxicology; cited from earlier work
PDGFRa = settings: kinase inhibition profiles; cited from earlier work
VEGFR2 = settings: kinase inhibition profiles; cited from earlier work
ZAK = settings: kinase inhibition profiles; cited from earlier work
[3] = human, plasma, oral, 50 mg, Multiple-dose administration
[4] = human, plasma, oral, 50 mg, Single-dose administration
[5] = human, plasma, oral, 100 mg, Multiple-dose administration
[6] = human, plasma, oral, 100 mg, Single-dose administration
[7] = human, plasma, oral, 200 mg, Multiple-dose administration
[8] = human, plasma, oral, 200 mg, Single-dose administration
[9] = human, plasma, oral, 300 mg, Multiple-dose administration
[10] = human, plasma, oral, 300 mg, Single-dose administration
[11] = human, plasma, oral, 400 mg, Multiple-dose administration
[12] = human, plasma, oral, 400 mg, Single-dose administration
[13] = human, plasma, oral, 500 mg, Multiple-dose administration
[14] = human, plasma, oral, 500 mg, Single-dose administration
[15] = human, plasma, oral, 600 mg, Multiple-dose administration
[16] = human, plasma, oral, 600 mg, Single-dose administration
[17] = human, plasma, oral, 750 mg, Single-dose administration

In the case of `Cc1ccc(C(=O)Nc2ccc(CN3CCN(C)CC3)c(C(F)(F)F)c2)cc1C#Cc1nnc2ccccn12` [vamotinib], the “inhibition of EPHA6” value (EPHA6) is listed as “not”, the “inhibition of TAK1” value (TAK1) is listed as “not” and the arterial occlusive events (animals; pre-clinical studies in animals) is listed as “no arterial occlusive events”. The cardio-vascular findings (animals; pre-clinical toxicology studies) was “No cardio-vascular findings”, the “inhibition of TIE2” value (TIE2) was “not” and the IC50 [1] was 75 nM. For the same molecule, the “Ctrough, Mean” value ([2]; Multiple-dose administration, 50 mg) was 7,35 ng/ml, the “Ctrough, Mean” value ([2]; Multiple-dose administration, 100 mg) was 8,90 ng/ml and the “Ctrough, Mean” value ([2]; Multiple-dose administration, 200 mg) was 21,92 ng/ml. For the same molecule, the “Ctrough, Mean” value ([2]; Multiple-dose administration, 300 mg) was 22,45 ng/ml, the “Ctrough, Mean” value ([2]; Multiple-dose administration, 400 mg) was 35,34 ng/ml and the “Ctrough, Mean” value ([2]; Multiple-dose administration, 500 mg) was 38,40 ng/ml. The “Ctrough, Mean” value ([2]; Multiple-dose administration, 600 mg) was 49,78 ng/ml, the “linearity of pharmacokinetics (concentration-time profiles)” value ([2]; dose range 50–750 mg) was “linear or near-linear pharmacokinetics” and the half-life ([2]; human, plasma, oral) was 810 min. It also gave a Cmax [2, 3] of 33.3 ng/mL, a Tmax [2, 3] of 1.9 h and an AUC(0-t) ([2]; human, plasma, oral, 50 mg, Multiple-dose administration, 50 mg, read-out: AUC0-24, Mean) of 445 ng·h/mL. The Cmax [2, 4] was 25.3 ng/mL, the Tmax [2, 4] was 2.67 h and the AUC(0-t) ([2]; human, plasma, oral, 50 mg, Single-dose administration, 50 mg, read-out: AUC0-t, Mean) was 252 ng·h/mL. It also gave a Cmax [2, 5] of 94 ng/mL, a Tmax [2, 5] of 3.36 h and an AUC(0-t) ([2]; human, plasma, oral, 100 mg, Multiple-dose administration, 100 mg, read-out: AUC0-24, Mean) of 1260 ng·h/mL. It also gave a Cmax [2, 6] of 89.7 ng/mL, a Tmax [2, 6] of 4.67 h and an AUC(0-t) ([2]; human, plasma, oral, 100 mg, Single-dose administration, 100 mg, read-out: AUC0-t, Mean) of 1070 ng·h/mL. It also gave a Cmax [2, 7] of 109 ng/mL, a Tmax [2, 7] of 3.36 h and an AUC(0-t) ([2]; human, plasma, oral, 200 mg, Multiple-dose administration, 200 mg, read-out: AUC0-24, Mean) of 1580 ng·h/mL. For the same molecule, the Cmax [2, 8] was 82.1 ng/mL, the Tmax [2, 8] was 3.46 h and the AUC(0-t) ([2]; human, plasma, oral, 200 mg, Single-dose administration, 200 mg, read-out: AUC0-t, Mean) was 1060 ng·h/mL. It also gave a Cmax [2, 9] of 148 ng/mL, a Tmax [2, 9] of 4.52 h and an AUC(0-t) ([2]; human, plasma, oral, 300 mg, Multiple-dose administration, 300 mg, read-out: AUC0-24, Mean) of 2260 ng·h/mL. The Cmax [2, 10] was 125 ng/mL, the Tmax [2, 10] was 3.58 h and the AUC(0-t) ([2]; human, plasma, oral, 300 mg, Single-dose administration, 300 mg, read-out: AUC0-t, Mean) was 1630 ng·h/mL. The Cmax [2, 11] was 177 ng/mL, the Tmax [2, 11] was 4 h and the AUC(0-t) ([2]; human, plasma, oral, 400 mg, Multiple-dose administration, 400 mg, read-out: AUC0-24, Mean) was 2710 ng·h/mL. For the same molecule, the Cmax [2, 12] was 120 ng/mL, the Tmax [2, 12] was 4.72 h and the AUC(0-t) ([2]; human, plasma, oral, 400 mg, Single-dose administration, 400 mg, read-out: AUC0-t, Mean) was 1740 ng·h/mL. It also gave a Cmax [2, 13] of 228 ng/mL, a Tmax [2, 13] of 4.04 h and an AUC(0-t) ([2]; human, plasma, oral, 500 mg, Multiple-dose administration, 500 mg, read-out: AUC0-24, Mean) of 3490 ng·h/mL. The Cmax [2, 14] was 116 ng/mL, the Tmax [2, 14] was 3.96 h and the AUC(0-t) ([2]; human, plasma, oral, 500 mg, Single-dose administration, 500 mg, read-out: AUC0-t, Mean) was 1500 ng·h/mL. It also gave a Cmax [2, 15] of 179 ng/mL, a Tmax [2, 15] of 3.62 h and an AUC(0-t) ([2]; human, plasma, oral, 600 mg, Multiple-dose administration, 600 mg, read-out: AUC0-24, Mean) of 2800 ng·h/mL. The Cmax [2, 16] was 212 ng/mL, the Tmax [2, 16] was 4.65 h and the AUC(0-t) ([2]; human, plasma, oral, 600 mg, Single-dose administration, 600 mg, read-out: AUC0-t, Mean) was 3020 ng·h/mL. The Cmax [2, 17] was 225 ng/mL, the Tmax [2, 17] was 4.5 h and the AUC(0-t) ([2]; human, plasma, oral, 750 mg, Single-dose administration, 750 mg, read-out: AUC0-t, Mean) was 3290 ng·h/mL. The “time of dosing to reach steady-state” value ([2]; once daily dosing) was 8 days, the “concentration in the blood during the day” value ([2]; starting from a dose of 200 mg) was “exceeds 75 nM” and the “inhibition of EPHA7” value (EPHA7) was “not”. The Rash (rats) was “Rash was seen”, the Rash (dogs) was “Rash was seen” and the “inhibition of PDGFRa” value (PDGFRa) was “potently inhibited”. The “inhibition of VEGFR2” value (VEGFR2) was “not” and the “inhibition of ZAK” value (ZAK) was “not”.
